Laboratory results reported in ChEMBL document CHEMBL1129518, “Synthesis and pharmacologic evaluation of 2-endo-amino-3-exo-isopropylbicyclo[2.2.1]heptane: a potent imidazoline1 receptor specific agent” (J Med Chem, 1996).

Experiments:
[1] = target: T1, Adrenergic receptor alpha-1 (Homo sapiens, UniProt P35348+P25100+P35368); test: Binding affinity for human brain Alpha-1 adrenergic receptor
T1 sequence (P35348 whole entry): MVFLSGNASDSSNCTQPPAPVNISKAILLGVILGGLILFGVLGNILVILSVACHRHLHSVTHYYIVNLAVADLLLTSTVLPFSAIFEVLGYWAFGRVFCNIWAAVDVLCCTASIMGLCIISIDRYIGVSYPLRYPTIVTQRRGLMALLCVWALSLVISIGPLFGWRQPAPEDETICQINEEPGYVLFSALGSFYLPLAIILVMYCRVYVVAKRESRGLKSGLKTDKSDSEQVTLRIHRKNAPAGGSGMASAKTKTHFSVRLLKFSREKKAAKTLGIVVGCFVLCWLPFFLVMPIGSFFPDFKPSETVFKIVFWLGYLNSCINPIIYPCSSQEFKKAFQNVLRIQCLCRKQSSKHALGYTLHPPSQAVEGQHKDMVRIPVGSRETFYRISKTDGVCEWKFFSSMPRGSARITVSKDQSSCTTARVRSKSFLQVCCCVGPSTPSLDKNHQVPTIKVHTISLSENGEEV
T1 sequence (P25100 whole entry): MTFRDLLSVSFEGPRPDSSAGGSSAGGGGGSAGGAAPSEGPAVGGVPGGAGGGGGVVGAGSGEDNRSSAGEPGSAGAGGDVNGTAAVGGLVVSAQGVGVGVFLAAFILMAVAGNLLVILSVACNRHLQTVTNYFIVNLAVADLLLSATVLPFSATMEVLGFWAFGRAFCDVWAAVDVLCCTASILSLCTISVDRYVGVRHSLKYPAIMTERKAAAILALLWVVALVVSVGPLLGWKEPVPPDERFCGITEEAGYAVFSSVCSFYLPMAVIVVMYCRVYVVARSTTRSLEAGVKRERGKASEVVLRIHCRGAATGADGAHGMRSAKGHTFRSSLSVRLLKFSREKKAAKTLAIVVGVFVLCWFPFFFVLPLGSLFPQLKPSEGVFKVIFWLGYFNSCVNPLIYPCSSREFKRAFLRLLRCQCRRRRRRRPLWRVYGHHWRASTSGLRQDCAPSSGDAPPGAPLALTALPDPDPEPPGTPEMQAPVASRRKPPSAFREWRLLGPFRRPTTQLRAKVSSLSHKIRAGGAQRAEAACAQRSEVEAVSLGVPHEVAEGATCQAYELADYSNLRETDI
T1 sequence (P35368 whole entry): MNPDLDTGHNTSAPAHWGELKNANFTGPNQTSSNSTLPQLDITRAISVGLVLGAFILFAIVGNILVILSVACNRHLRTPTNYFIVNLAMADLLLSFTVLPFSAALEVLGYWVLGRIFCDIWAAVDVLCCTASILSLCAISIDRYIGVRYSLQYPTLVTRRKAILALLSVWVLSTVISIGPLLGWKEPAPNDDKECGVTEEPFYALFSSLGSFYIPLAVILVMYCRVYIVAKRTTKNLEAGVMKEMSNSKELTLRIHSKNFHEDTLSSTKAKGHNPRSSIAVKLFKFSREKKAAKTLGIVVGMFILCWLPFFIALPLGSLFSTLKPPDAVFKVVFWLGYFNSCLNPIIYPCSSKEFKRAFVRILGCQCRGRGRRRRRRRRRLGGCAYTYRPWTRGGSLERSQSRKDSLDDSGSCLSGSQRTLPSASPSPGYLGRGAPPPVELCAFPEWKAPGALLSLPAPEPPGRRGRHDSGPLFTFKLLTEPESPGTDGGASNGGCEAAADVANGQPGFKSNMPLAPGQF

[2] = target: T2, Alpha-2A adrenergic receptor (Homo sapiens, UniProt P08913); test: Binding affinity for human Alpha-2A adrenergic receptor
T2 sequence (P08913 whole entry): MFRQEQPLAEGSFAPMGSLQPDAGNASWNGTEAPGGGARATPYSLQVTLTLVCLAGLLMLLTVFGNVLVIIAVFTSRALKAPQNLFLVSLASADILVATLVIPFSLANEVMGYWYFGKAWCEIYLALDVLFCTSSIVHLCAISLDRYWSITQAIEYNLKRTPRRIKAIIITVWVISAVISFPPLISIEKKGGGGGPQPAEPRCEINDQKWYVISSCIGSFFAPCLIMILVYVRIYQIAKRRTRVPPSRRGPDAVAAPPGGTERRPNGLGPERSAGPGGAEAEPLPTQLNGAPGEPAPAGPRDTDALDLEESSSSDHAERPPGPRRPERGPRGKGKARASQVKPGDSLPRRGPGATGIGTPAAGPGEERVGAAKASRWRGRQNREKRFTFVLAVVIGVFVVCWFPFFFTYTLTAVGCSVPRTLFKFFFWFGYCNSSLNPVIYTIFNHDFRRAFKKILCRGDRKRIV

[3] = target: T3, Alpha-2C adrenergic receptor (Homo sapiens, UniProt P18825); test: Binding affinity for human Alpha-2C adrenergic receptor
T3 sequence (P18825 whole entry): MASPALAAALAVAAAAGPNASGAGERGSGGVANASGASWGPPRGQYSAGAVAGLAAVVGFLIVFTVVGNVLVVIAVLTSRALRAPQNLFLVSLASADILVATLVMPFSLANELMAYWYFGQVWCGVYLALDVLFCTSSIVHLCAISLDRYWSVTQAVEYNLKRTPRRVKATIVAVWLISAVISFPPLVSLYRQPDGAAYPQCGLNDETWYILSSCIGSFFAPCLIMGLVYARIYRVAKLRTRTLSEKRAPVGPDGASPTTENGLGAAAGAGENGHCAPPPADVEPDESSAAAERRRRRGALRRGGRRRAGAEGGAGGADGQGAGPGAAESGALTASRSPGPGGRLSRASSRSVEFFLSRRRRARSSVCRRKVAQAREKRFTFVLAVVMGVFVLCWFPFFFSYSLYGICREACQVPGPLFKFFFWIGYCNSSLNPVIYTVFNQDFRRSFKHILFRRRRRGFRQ

[4] = target: T4, Alpha-2B adrenergic receptor (Rattus norvegicus, UniProt P19328); test: Binding affinity for rat Alpha-2B adrenergic receptor
T4 sequence (P19328 whole entry): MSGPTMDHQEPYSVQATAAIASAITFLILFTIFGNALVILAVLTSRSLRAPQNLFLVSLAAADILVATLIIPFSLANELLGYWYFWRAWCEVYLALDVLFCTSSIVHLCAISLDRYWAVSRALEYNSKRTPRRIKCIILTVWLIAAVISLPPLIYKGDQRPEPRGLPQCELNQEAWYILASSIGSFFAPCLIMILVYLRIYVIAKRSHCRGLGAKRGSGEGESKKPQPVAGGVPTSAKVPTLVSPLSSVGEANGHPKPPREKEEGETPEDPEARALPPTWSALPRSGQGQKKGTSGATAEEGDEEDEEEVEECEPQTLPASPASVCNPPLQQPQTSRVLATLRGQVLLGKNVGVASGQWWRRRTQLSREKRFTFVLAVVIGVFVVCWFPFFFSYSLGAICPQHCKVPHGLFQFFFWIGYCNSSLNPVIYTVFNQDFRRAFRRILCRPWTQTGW

SMILES: CC(C)C1C2CCC(C2)C1N (stereo not given)
- Ki [1]: > 100 µM
- Ki [2]: > 20 µM
- Ki [3]: > 20 µM
- Ki [4]: > 20 µM

SMILES: COc1nc(C)nc(Cl)c1NC1=NCCN1 [MOXONIDINE]
- Ki [1]: > 30 µM
